Row | SMILES | melting point [°C]
1 | Cc1sc(CO)c(C)c1C | 45 to 48
2 | CNC(=O)NC(=S)N1N=C(c2ccc([N+](=O)[O-])cc2)c2cc3c(cc2CC1C)OCO3 (stereo not given) | 164
3 | CC(=O)OCC(=O)Nc1cccc([N+](=O)[O-])c1C#N | 157 to 158
4 | COC(=O)c1sc2cccc(C#N)c2c1N | 169 to 170
5 | CC1C=C(c2cccc(C(F)(F)F)c2)n2ncc(C#N)c2N1C(=O)CCl (stereo not given) | 160 to 163
6 | CCCCc1ncc(/C=C(\Cc2cccs2)C(=O)O)n1CCc1ccc(CC(=O)O)cc1 | 169 to 171
7 | CCCCCC(O)CCCC(Cc1ccc(C=CC(=O)O)cc1)C(C)=O (stereo not given) | 87 to 92
8 | COc1cc(C(=O)N2CCc3nnc(NN)cc3C2)cc(OC)c1OC | 194 to 197
9 | CCNC(=O)c1ccccc1Nc1nc(Nc2cc3c(cc2OC)CCN(CC(=O)N(C)C)CC3)ncc1Cl | 99 to 111
10 | O=C(CN1CCN(C(CO)C(=O)O)CCN(C(CO)C(=O)O)CCN(C(CO)C(=O)O)CC1)NCCOCCO (stereo not given) | 145 to 150
11 | Cc1cccc(-c2[nH]c(C(C)C)nc2-c2cccc(-c3ccc(N)cn3)c2)n1 | 119 to 124
12 | Nc1nc(-c2ccc(CCCCN3CCN(c4ccccc4)CC3)s2)cs1 | 165 to 167
13 | COc1ccc(C(=O)C=Cc2cccc(N(C)C)c2)c(OC)c1OC | 87.2 to 87.9
14 | O=C1N(C(c2ccccc2)c2ccccc2)c2ccccc2C12COc1ccc(-c3cccnc3)cc12 (stereo not given) | 204 to 207
15 | CC(=O)Nc1cc(Oc2ccc3c(C(=O)Nc4ccc(N5CCS(=O)(=O)CC5)c(C(F)(F)F)c4)cccc3c2)ncn1 | 280 to 287
16 | CC(C)CC(=O)C(=O)NCC(=O)c1ccccc1 | 193 to 195
17 | Cc1cc(C)cc(NC(=O)Cc2ccc(OC(C)(C)C(=O)O)cc2)c1 | 85
18 | O=C(Nc1cccc(SC(F)(F)F)c1)c1ccc2ccccc2c1O | 154
19 | CCCc1c(OCc2ccc3ncc(CCC(=O)O)c(=O)n3c2)ccc(C(C)=O)c1O | 190 to 194
20 | CCOC(=O)c1cc2cc(C)cc(NS(=O)(=O)c3cccs3)c2[nH]1 | 168 to 169
21 | CCOCCOc1ccc(CCNC(=O)OC(C)(C)C)cc1 | 56 to 57
22 | CC(C)(C)OCC(NC(=O)c1ccc2c(Cl)cnc(NC(=N)N)c2c1)C(=O)OC(C)(C)C (racemic) | 215 to 219
23 | Cc1nc(N2CCN(CC3CC3)C2=O)sc1C(=O)NCc1cccnc1 | 157 to 158
24 | CC(Oc1ccc(Oc2ccc(C(F)(F)F)cc2)cc1)C(=O)N1CCCO1 (stereo not given) | 105 to 107
25 | CCOC(=O)CCCNC(=O)c1ccc2c(c1)C=CC(C)(C)O2 | 88 to 89

Row | SMILES | melting point [°C]
26 | N#Cc1c(Cl)cccc1C(Br)Br | 120
27 | CSc1ncncc1C(c1ccccc1F)C(C)(C)C(=O)O (stereo not given) | 204 to 205
28 | Cc1ccnc([N+](=O)[O-])c1O | 87 to 88
29 | O=C1c2cc(Cl)ccc2CN2C(=NO)CCC12 (stereo not given) | 130 to 136
30 | CCN(CC)C(=O)Oc1cc(-c2ccccc2)c2ccccc2n1 | 64
31 | CCc1cccc(C)c1S(=O)(=O)c1nn(C(=O)N(CC)CC)cc1C#N | 101 to 102
32 | CCC1CC(=O)C=C2CCC3C4CCC(=O)C4(C)CCC3C21C (stereo not given) | 168
33 | CC(C)n1nc(-c2sc(C(=O)N3CCCC3)nc2-c2ccccc2)ccc1=O | 169 to 170
34 | CN(C)C1(c2ccccc2)CCC(CCCNC(=O)NCCc2c[nH]c3ccccc23)CC1 (stereo not given) | 57
35 | O=C(O)c1ccc(OCCCCc2cc(-c3ccc(C(F)(F)F)cc3)no2)cc1 | 170 to 171
36 | CCOc1nn(Cc2ccc(OCc3ccc(-c4ccccc4)cn3)cc2)cc1CCC(=O)O | 127 to 128
37 | O=C(CCc1ccncc1)NC(Cc1c[nH]c2ccccc12)C(=O)CCc1cc(C(F)(F)F)cc(C(F)(F)F)c1 (stereo not given) | 108
38 | N#Cc1cc(C(F)(F)F)[nH]c1-c1ccccc1Cl | 151 to 152
39 | CCC(=O)NCC[C@@H]1CCc2ccc3c(c21)CCO3 | 113 to 115
40 | O=C1CCC(N2C(=O)c3cccc(OCc4ccc(CN5CCN(c6ccc(F)cc6)CC5)cc4)c3C2=O)C(=O)N1 (stereo not given) | 135 to 137
41 | COc1ccc2c(c1)CC(C(=O)O)CC2 (stereo not given) | 119 to 122
42 | CS(=O)(=O)N1Cc2nc3c(N)nc4c(c3n2C(CCCNC(=O)N2CCOCC2)C1)CCCC4 (stereo not given) | 149 to 160
43 | COc1ccc(CCc2ccc(NC(=O)c3ccc(C)cc3O)cc2)cc1OC | 162 to 164
44 | O=c1[nH]cc2n1-c1ccc(Cl)cc1C(c1ccccc1F)=NC2 | 247 to 250
45 | NC(=O)c1ccc(-c2ccc3nnn(Cc4cc5cccnc5cc4F)c3n2)cc1Cl | 202 to 204
46 | CCOC(=O)c1c2n(c3c(F)c(N4CCC(N(C)C)C4)c(F)cc3c1=O)C(C)S2 (stereo not given) | 165 to 168
47 | COC(=O)Cc1cc(NC(=O)OC(C)(C)C)c(NC(=O)CC(=O)c2cccc(C#N)c2)cc1C#Cc1ccccc1 | 138
48 | N#CC1=C(C2CC2)Nc2n[nH]cc2C1c1cccc(C#N)c1Br (stereo not given) | > 250
49 | O=C(Oc1ccccc1C(=O)NCCO[N+](=O)[O-])c1cccnc1 | 94 to 96
50 | CCOC(=O)c1cc(-c2ccc(C)cc2)n(-c2ccc(S(N)(=O)=O)cc2)n1 | 220 to 222

Row | SMILES | melting point [°C]
51 | N#Cc1ccc(N2CCC(=O)CC2)c2ccccc12 | 143 to 144
52 | COC(=O)c1ccc(OCC2CCCCC2)cc1 | 62 to 63
53 | O=[N+]([O-])c1cc(F)ccc1S(=O)(=O)c1ccccc1 | 127 to 129
54 | COc1ccc2nc(NC(=O)C(CC3CCCC3)c3ccc(S(=O)(=O)N(C)Cc4ccccc4)cc3)sc2n1 (stereo not given) | 206 to 208
55 | O=C(Nc1cccc(-c2ccnc3c(C(=O)c4cccs4)cnn23)c1)c1cccnc1 | 191 to 194
56 | O=C(Nc1nnn[nH]1)c1cccc([N+](=O)[O-])c1Cl | 279
57 | COc1ccc(Cn2nc(-c3ccc(SC)cc3)c(-c3ccc(F)cc3)cc2=S)cc1 | 113
58 | Cc1cc(C)c2c(c1)-c1cc(Br)c(C)cc1P(=O)(O)O2 | 260
59 | CC(C)[C@H](NC(=O)CNC(=O)OCC1c2ccccc2-c2ccccc21)C(=O)O | 69 to 71
60 | CCCCc1nc(SC)c(C(=O)OCC)n1Cc1cccc(-c2ccccc2S(=O)(=O)NC#N)c1 | 118
61 | COc1ncc(-c2nn(C(C)c3oc4ccccc4c(=O)c3-c3cccc(F)c3)c3ncnc(N)c23)c(OC)n1 (stereo not given) | 286 to 290
62 | CCOC(=O)C1=C(C)N=C(N)C(CC)(C(=O)OCC)C1c1cccc([N+](=O)[O-])c1 (stereo not given) | 122 to 123
63 | Cc1cc(C)c2c(c1C)OCC2c1ccc(C(C)C)cc1 (stereo not given) | 48 to 49
64 | CCCCCCCCCCCCOc1ccc(CO)cc1 | 66.5 to 67
65 | Cc1nc(-c2ccc(-c3ccccc3S(=O)(=O)Nc3onc(C)c3C)cc2)co1 | 90 to 100
66 | CCC1(CC)CN(c2ncc(C(=O)N(C)c3cccc(C(F)(F)F)c3)c(N)n2)C(=O)N1 | 185 to 187
67 | O[C@H]1CC[C@H](Nc2nccc(-c3n[nH]c4c(C(F)(F)F)cccc34)n2)CC1 | 266 to 270
68 | CCCNC(=O)CCn1ccc(=O)c(O)c1 | 113 to 114
69 | Clc1ccc2nc(-c3cccs3)c(I)n2n1 | 205 to 209
70 | C/C=C/C(=O)NC(=O)OC | 149 to 150
71 | NS(=O)(=O)c1ccc(NN=C2C(=O)Nc3cc(Oc4ccccc4)ccc32)cc1 | > 250
72 | CCCC(=O)c1c[nH]c2ccsc2c1=O | 244 to 247
73 | CCOC(=O)c1cc(Oc2ccc(C(F)(F)F)cc2Cl)ccc1[N+](=O)[O-] | 156 to 160
74 | O=C(O)C(O)c1cccc(OCc2ccccc2Cl)c1OCc1ccccc1Cl (stereo not given) | 98 to 100
75 | COC(=O)CCCCCSC1=CCCC1=O | 45 to 46.5

Row | SMILES | melting point [°C]
76 | CCCCCCCNC(=O)Nc1ccccc1C(=O)NC1CCNCC1 | 159
77 | CC1(C)C(CC(Cl)(Cl)Cl)C1C(=O)O (stereo not given) | 85 to 89
78 | Oc1ccc(CCNc2ncnc3scnc23)cc1 | 161 to 168
79 | O=C(C1=C(O)CCS1)c1nnn(Cc2ccccc2)c1Cl | 118 to 120
80 | N#CCOc1cccc2onc(N)c12 | 133 to 136
81 | c1cncc(-c2cccc(-n3cnc4cc(-c5ccoc5)cnc43)c2)c1 | 191 to 192
82 | Cc1nc2cc(Cl)c(Cl)cc2n1C1CC(CO)C(O)C1O (stereo not given) | 198 to 200
83 | O=C(O)c1cn(Cc2ccc(OCc3csc(-c4ccccc4)n3)cc2)nc1-c1cccs1 | 187 to 188
84 | N#Cc1ccc(C(=O)N2CCNC2=Nc2c(Cl)cccc2Cl)cc1 | 208 to 210
85 | CCCCCCCCCCC[C@@H](O)CCO | 59 to 60
86 | Cn1ncc(Cl)c(N)c1=O | 106 to 107
87 | O=c1ccn(-c2cccc(C(F)(F)F)c2)nc1-c1cn(C(c2ccccc2)(c2ccccc2)c2ccccc2)nc1-c1ccccc1 | 216 to 218
88 | NC(=O)c1sc2nccc(NC3CCCCC3)c2c1N | 244 to 247
89 | Fc1cnc(Nc2nc3c(s2)CCN(CCCN2CCOCC2)c2n[nH]cc2-3)nc1 | 251 to 254
90 | COc1ncccc1-c1cccn2nc(Nc3ccc4ncccc4c3)nc12 | 247 to 249
91 | COc1c(-c2ccccc2)c(C(=O)c2ccc(O)c(Br)c2)n2ccccc12 | 205
92 | O=C(Nc1ccc(C(CC2CCCC2)C(=O)Nc2nccs2)cc1)c1ccncc1 (stereo not given) | 225 to 230
93 | OCc1ccc2c(ccc3c4ccccc4ccc23)c1 | 261 to 262
94 | C#Cc1cc(C(=O)OC)ccc1S(C)(=O)=O | 95 to 98
95 | CCc1c(OC)cc(C2CN(C)CCC2=O)cc1OC (stereo not given) | 84 to 85
96 | Cc1noc(C)c1-c1ccccc1OC1SCC(O)C(O)C1O (stereo not given) | 110 to 117
97 | O=P(CN(O)CP(=O)(OCc1ccccc1)OCc1ccccc1)(OCc1ccccc1)OCc1ccccc1 | 71 to 73
98 | CC(C)(Nc1ccccc1N)C(=O)O | 130 to 132
99 | NC(=C[N+](=O)[O-])N1CCCC1 | 120 to 125
100 | O=c1c2[nH]cnc2n(CC2CC2)c(=O)n1CC1CC1 | 203

Source: a melting point compilation (Tetko et al.; mined from patent text by program, amines drawn as free bases though some values may be those of a salt)
